Results taken from the supplement of paper PMC10307832.

How the values were obtained:
Test in all cases: relative viability (nuclei count vs DMSO), 5 days (fraction); higher = more cells survive
CUDC-101 + Pemetrexed = compound: C#Cc1cccc(Nc2ncnc3cc(OC)c(OCCCCCCC(=O)NO)cc23)c1 [CUDC-101] + Nc1nc2[nH]cc(CCc3ccc(C(=O)N[C@@H](CCC(=O)O)C(=O)O)cc3)c2c(=O)[nH]1 [Pemetrexed] (partner 0.2 µM)
Method in brief: (§1)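 Medians of duplicate plates are given as relative viability. That measure is the nuclei count in treated wells divided by the count in vehicle wells. Counts were taken on 4× images of lung cancer cell lines in 1536-well plates, 5 days after pin-tool dosing the day after seeding with one drug alone or a fixed anchor-drug dose plus five library-drug doses (not always all listed) in √10 steps.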

[1] = compound: C1=CC=C2C(=C1)N=C(S2)C(C#N)C3=NC(=NC=C3)NCCC4=CN=CC=C4 + CC(=O)Nc1cccc(-n2c(=O)n(C3CC3)c(=O)c3c(Nc4ccc(I)cc4F)n(C)c(=O)c(C)c32)c1 [Trametinib] (partner 0.02 µM)
Method in brief: as §1

[2] = compound: C1=CC=C2C(=C1)N=C(S2)C(C#N)C3=NC(=NC=C3)NCCC4=CN=CC=C4 + CC1(C)CCC(c2ccc(Cl)cc2)=C(CN2CCN(c3ccc(C(=O)NS(=O)(=O)c4ccc(N[C@H](CCN5CCOCC5)CSc5ccccc5)c(S(=O)(=O)C(F)(F)F)c4)cc3)CC2)C1 [Navitoclax] (partner 0.5 µM)
Method in brief: as §1

NVP-TAE684 + Alpelisib = compound: COc1cc(N2CCC(N3CCN(C)CC3)CC2)ccc1Nc1ncc(Cl)c(Nc2ccccc2S(=O)(=O)C(C)C)n1 [NVP-TAE684] + Cc1nc(NC(=O)N2CCC[C@H]2C(N)=O)sc1-c1ccnc(C(C)(C)C(F)(F)F)c1 [Alpelisib] (partner 2 µM)
Method in brief: as §1

Cell Line | relative viability (CUDC-101 + Pemetrexed; first compound 0.01 µM) | relative viability (CUDC-101 + Pemetrexed; first compound 0.03162 µM) | relative viability (CUDC-101 + Pemetrexed; first compound 0.1 µM) | relative viability (CUDC-101 + Pemetrexed; first compound 0.3162 µM) | relative viability (CUDC-101 + Pemetrexed; first compound 1 µM) | relative viability ([1]; first compound 0.005 µM) | relative viability ([1]; first compound 0.01581 µM) | relative viability ([1]; first compound 0.05 µM) | relative viability ([1]; first compound 0.1581 µM) | relative viability ([1]; first compound 0.5 µM) | relative viability ([2]; first compound 0.01581 µM) | relative viability ([2]; first compound 0.05 µM) | relative viability ([2]; first compound 0.1581 µM) | relative viability ([2]; first compound 0.5 µM) | relative viability (NVP-TAE684 + Alpelisib; first compound 0.2 µM) | relative viability (NVP-TAE684 + Alpelisib; first compound 0.6325 µM) | relative viability (NVP-TAE684 + Alpelisib; first compound 2 µM) | relative viability ([2]; first compound 0.005 µM)
LK-2 | 0.255 | 0.28 | 0.245 | 0.207 | 0.133 | 0.535 | 0.604 | 0.907 | 0.74 | 0.838 | 0.931 | 0.824 | 0.916 | 0.843 | 0.846 | 1.07 | 0.574 | –
LOU-NH91 | 0.411 | 0.414 | 0.421 | 0.315 | 0.341 | 0.794 | 0.806 | 0.764 | 0.794 | 0.779 | 0.724 | 0.578 | 0.633 | 0.641 | 0.68 | 0.623 | 0.532 | 0.682
LU99A | 0.205 | 0.197 | 0.179 | 0.18 | 0.176 | 0.463 | 0.543 | – | 0.661 | 0.555 | 0.968 | 0.777 | 0.948 | 0.866 | 0.594 | 0.524 | 0.328 | 0.691
LXF-289 | 0.881 | 0.888 | 0.873 | 0.904 | 0.805 | 0.601 | 0.726 | 0.716 | 0.706 | 0.577 | 0.972 | 0.95 | 1 | 0.892 | 1.08 | 1.04 | – | 0.857
NCI-H23 | 0.757 | 0.744 | 0.604 | 0.755 | 0.514 | – | 0.436 | 0.391 | 0.406 | 0.45 | 0.958 | 0.728 | 0.959 | 0.958 | 0.856 | 0.62 | 0.484 | –
NCI-H322M | 0.636 | 0.604 | 0.585 | 0.569 | 0.453 | 0.483 | 0.525 | 0.489 | 0.569 | 0.558 | 1.24 | 1.23 | 1.49 | 1.18 | 0.638 | 0.771 | 0.818 | 1.24
NCI-H441 | 0.248 | 0.261 | 0.263 | 0.274 | 0.228 | 0.444 | 0.409 | 0.432 | 0.49 | 0.307 | 0.625 | 0.513 | 0.575 | 0.48 | 0.835 | 0.965 | 0.503 | –
NCI-H460 | 0.0606 | 0.0635 | 0.0676 | 0.0669 | 0.0703 | – | 0.137 | 0.131 | 0.175 | 0.141 | 1.38 | 1.13 | 1.23 | 0.656 | 0.607 | 0.412 | 0.113 | –
NCI-H520 | 0.711 | 0.755 | 0.774 | 0.608 | 0.342 | 0.659 | 0.684 | 0.765 | 0.799 | 0.824 | 1.25 | 1.03 | 1.26 | 1.19 | 1.17 | 1.16 | 0.354 | 0.929
NCI-H596 | 0.466 | 0.538 | 0.482 | 0.644 | 0.472 | 0.7 | 0.86 | 0.762 | 0.777 | 0.765 | 1.08 | 0.893 | 1.18 | 0.953 | 0.526 | 0.517 | 0.375 | 0.913
NCI-H647 | 0.177 | 0.167 | 0.199 | 0.194 | 0.165 | 0.407 | 0.515 | 0.45 | 0.546 | 0.451 | 1.22 | 0.955 | 1.34 | 0.979 | 1.32 | 1.1 | 0.377 | –
NCI-H838 | 0.332 | 0.248 | 0.257 | 0.26 | 0.198 | 0.576 | 0.507 | 0.492 | 0.561 | 0.593 | 1.22 | 1.16 | 1.1 | 1.22 | 1.06 | 0.97 | 0.537 | 1.02
NCI-H1355 | 0.995 | 1.07 | 0.974 | 1.13 | 1.02 | 0.439 | 0.425 | 0.473 | 0.494 | 0.324 | 0.959 | 0.906 | 1.03 | 0.975 | 0.721 | 0.928 | 0.473 | 0.975
NCI-H1395 | 0.856 | 0.91 | 0.943 | 0.877 | 0.676 | 0.983 | – | 0.949 | 1.2 | 0.979 | – | 1.03 | 1.08 | 1.22 | 1.2 | 1.19 | 0.739 | 1.23
NCI-H1437 | 0.336 | 0.306 | 0.337 | 0.31 | 0.316 | 0.503 | 0.55 | 0.52 | 0.539 | 0.427 | 1.15 | 1.14 | 1.17 | 1.08 | 1 | 1 | 0.516 | 1.02
NCI-H1651 | 0.614 | 0.579 | 0.579 | 0.577 | 0.523 | 0.825 | 0.831 | 0.827 | 0.933 | 0.857 | 1.08 | 0.95 | 1.11 | 1.17 | – | 1.02 | 0.994 | 0.9
NCI-H1666 | 0.985 | 0.843 | 0.774 | 0.854 | 0.833 | 0.923 | 0.838 | 0.907 | 0.836 | 0.847 | 0.937 | 0.965 | 1.05 | 0.797 | – | 0.837 | 0.524 | 0.841
NCI-H1734 | 0.414 | 0.407 | 0.392 | 0.465 | 0.39 | 0.629 | 0.745 | 0.578 | 0.75 | 0.649 | 1.05 | 0.886 | 0.932 | 0.664 | 0.768 | 0.916 | 0.468 | 0.58
